Data on 29 compounds can be found in patent publication US20050197350A1, “Novel quinoline, tetrahydroquinazoline, and pyrimidine derivatives and methods of treatment related to the use thereof” (TAISHO PHARMACEUTICAL CO., LTD., priority 2003, published 2005).

The experiment relates to MCH receptors. The experiment in a line: MCH receptor activity class (method not given). The conditions noted are these: class by percent of control at 10^−7 M or IC50.

Turning to `Cc1cccc(CNC(=O)[C@H]2CC[C@@H](Nc3nc(C)cc(N(C)C)n3)CC2)c1` [compound 2822, cis-4-{[4-(dimethylamino)-6-methylpyrimidin-2-yl]amino}-N-(3-methylbenzyl)cyclohexanecarboxamide], the class was 1 (Class 1: The value of percent of control at 10^−7 M was less than 40% or the value of IC50 was less than 50 nM.).
With `Cc1cc(N(C)C)nc(N[C@H]2CC[C@@H](C(=O)NCc3ccccc3OC(F)(F)F)CC2)n1` [compound 2823, cis-4-{[4-(dimethylamino)-6-methylpyrimidin-2-yl]amino}-N-[2-(trifluoromethoxy)benzyl]cyclohexanecarboxamide], the class is 1 (Class 1: The value of percent of control at 10^−7 M was less than 40% or the value of IC50 was less than 50 nM.).
In the case of `COc1cccc(C(=O)N[C@H]2CC[C@@H](Nc3nc(C)c(C)c(N(C)C)n3)CC2)c1` [compound 2824, N-(cis-4-{[4-(dimethylamino)-5,6-dimethylpyrimidin-2-yl]amino}cyclohexyl)-3-methoxybenzamide], the class was 1 (Class 1: The value of percent of control at 10^−7 M was less than 40% or the value of IC50 was less than 50 nM.).
Take `Cc1nc(N[C@H]2CC[C@@H](NC(=O)c3cc(O)nc(O)c3)CC2)nc(N(C)C)c1C` [compound 2825]: the class was 3 (Class 3 The value of percent of control at 10^−7 M was more than 60% or the value of IC50 was more than 200 nM.).
With `Cc1nc(N[C@H]2CC[C@@H](NC(=O)c3cnccn3)CC2)nc(N(C)C)c1C` [compound 2826], the class is on record as 3 (Class 3 The value of percent of control at 10^−7 M was more than 60% or the value of IC50 was more than 200 nM.).
In the case of `Cc1nc(N[C@H]2CC[C@@H](NC(=O)c3ccc(O)nc3)CC2)nc(N(C)C)c1C` [compound 2827], the class is listed as 3 (Class 3 The value of percent of control at 10^−7 M was more than 60% or the value of IC50 was more than 200 nM.).
With `Cc1cc(C(=O)N[C@H]2CC[C@@H](Nc3nc(C)c(C)c(N(C)C)n3)CC2)no1` [compound 2828, N-(cis-4-{[4-(dimethylamino)-5,6-dimethylpyrimidin-2-yl]amino}cyclohexyl)-5-methylisoxazole-3-carboxamide], the class is recorded as 2 (Class 2: The value of percent of control at 10^−7 M was from 40% to 60% or the value of IC′50 was from 50 nM to 200 nM.).
For the compound `Cc1nc(C(=O)N[C@H]2CC[C@@H](Nc3nc(C)c(C)c(N(C)C)n3)CC2)co1` [compound 2830, N-(cis-4-{[4-(dimethylamino)-5,6-dimethylpyrimidin-2-yl]amino}cyclohexyl)-2-methyl-1,3-oxazole-4-carboxamide], the class is recorded as 2 (Class 2: The value of percent of control at 10^−7 M was from 40% to 60% or the value of IC′50 was from 50 nM to 200 nM.).
Take `Cc1ncccc1C(=O)N[C@H]1CC[C@@H](Nc2nc(C)c(C)c(N(C)C)n2)CC1` [compound 2831]: the class is 3 (Class 3 The value of percent of control at 10^−7 M was more than 60% or the value of IC50 was more than 200 nM.).
Take `COc1ccc(C(=O)N[C@H]2CC[C@@H](Nc3nc(C)c(C)c(N(C)C)n3)CC2)c(OC)n1` [compound 2832, N-(cis-4-{[4-(dimethylamino)-5,6-dimethylpyrimidin-2-yl]amino}cyclohexyl)-2,6-dimethoxynicotinamide]: the class is 1 (Class 1: The value of percent of control at 10^−7 M was less than 40% or the value of IC50 was less than 50 nM.).
As to `Cc1nc(N[C@H]2CC[C@@H](NC(=O)c3nccnc3N)CC2)nc(N(C)C)c1C` [compound 2833], the class is recorded as 2 (Class 2: The value of percent of control at 10^−7 M was from 40% to 60% or the value of IC′50 was from 50 nM to 200 nM.).
As for `CCOc1ncccc1C(=O)N[C@H]1CC[C@@H](Nc2nc(C)c(C)c(N(C)C)n2)CC1` [compound 2834], the class is listed as 3 (Class 3 The value of percent of control at 10^−7 M was more than 60% or the value of IC50 was more than 200 nM.).
Turning to `Cc1nc(N[C@H]2CC[C@@H](NC(=O)c3ccccn3)CC2)nc(N(C)C)c1C` [compound 2835], the class is recorded as 3 (Class 3 The value of percent of control at 10^−7 M was more than 60% or the value of IC50 was more than 200 nM.).
Turning to `Cc1nc(N[C@H]2CC[C@@H](NC(=O)c3cccc(C#N)c3)CC2)nc(N(C)C)c1C` [compound 2836, 3-cyano-N-(cis-4-{[4-(dimethylamino)-5,6-dimethylpyrimidin-2-yl]amino}cyclohexyl)benzamide], the class was 1 (Class 1: The value of percent of control at 10^−7 M was less than 40% or the value of IC50 was less than 50 nM.).
In the case of `Cc1cccc(C(=O)N[C@H]2CC[C@@H](Nc3nc(C)c(C)c(N(C)C)n3)CC2)c1` [compound 2837, N-(cis-4-{[4-(dimethylamino)-5,6-dimethylpyrimidin-2-yl]amino}cyclohexyl)-3-methylbenzamide] it was 1 (Class 1: The value of percent of control at 10^−7 M was less than 40% or the value of IC50 was less than 50 nM.); in that of `Cc1nc(N[C@H]2CC[C@@H](NC(=O)c3cccc(Cl)c3)CC2)nc(N(C)C)c1C` [compound 2838, 3-chloro-N-(cis-4-{[4-(dimethylamino)-5,6-dimethylpyrimidin-2-yl]amino}cyclohexyl)benzamide], 1 (Class 1: The value of percent of control at 10^−7 M was less than 40% or the value of IC50 was less than 50 nM.); in that of `Cc1nc(N[C@H]2CC[C@@H](NC(=O)c3cccc(Br)c3)CC2)nc(N(C)C)c1C` [compound 2839, 3-bromo-N-(cis-4-{[4-(dimethylamino)-5,6-dimethylpyrimidin-2-yl]amino}cyclohexyl)benzamide], 1 (Class 1: The value of percent of control at 10^−7 M was less than 40% or the value of IC50 was less than 50 nM.).
As to `COc1cc(OC)cc(C(=O)N[C@H]2CC[C@@H](Nc3nc(C)c(C)c(N(C)C)n3)CC2)c1` [compound 2840, N-(cis-4-{[4-(dimethylamino)-5,6-dimethylpyrimidin-2-yl]amino}cyclohexyl)-3,5-dimethoxybenzamide], the class was 1 (Class 1: The value of percent of control at 10^−7 M was less than 40% or the value of IC50 was less than 50 nM.).
With `Cc1nc(N[C@H]2CC[C@@H](NC(=O)c3cc(C(F)(F)F)cc(C(F)(F)F)c3)CC2)nc(N(C)C)c1C` [compound 2841, N-(cis-4-{[4-(dimethylamino)-5,6-dimethylpyrimidin-2-yl]amino}cyclohexyl)-3,5-bis(trifluoromethyl)benzamide], the class is recorded as 1 (Class 1: The value of percent of control at 10^−7 M was less than 40% or the value of IC50 was less than 50 nM.).
Take `Cc1nc(N[C@H]2CC[C@@H](NC(=O)c3ccc(Cl)c(Cl)c3)CC2)nc(N(C)C)c1C` [compound 2842, 3,4-dichloro-N-(cis-4-{[4-(dimethylamino)-5,6-dimethylpyrimidin-2-yl]amino}cyclohexyl)benzamide]: the class is reported as 1 (Class 1: The value of percent of control at 10^−7 M was less than 40% or the value of IC50 was less than 50 nM.).
As for `Cc1nc(N[C@H]2CC[C@@H](NC(=O)c3ccc(OC(F)(F)F)cc3)CC2)nc(N(C)C)c1C` [compound 2843, N-(cis-4-{[4-(dimethylamino)-5,6-dimethylpyrimidin-2-yl]amino}cyclohexyl)-4-(trifluoromethoxy)benzamide], the class is on record as 2 (Class 2: The value of percent of control at 10^−7 M was from 40% to 60% or the value of IC′50 was from 50 nM to 200 nM.).
Next, `Cc1nc(N[C@H]2CC[C@@H](NC(=O)c3ccc(C#N)cc3)CC2)nc(N(C)C)c1C` [compound 2844, 4-cyano-N-(cis-4-{[4-(dimethylamino)-5,6-dimethylpyrimidin-2-yl]amino}cyclohexyl)benzamide]: 1 (Class 1: The value of percent of control at 10^−7 M was less than 40% or the value of IC50 was less than 50 nM.); `Cc1ccc(C(=O)N[C@H]2CC[C@@H](Nc3nc(C)c(C)c(N(C)C)n3)CC2)cc1` [compound 2845, N-(cis-4-{[4-(dimethylamino)-5,6-dimethylpyrimidin-2-yl]amino}cyclohexyl)-4-methylbenzamide]: 1 (Class 1: The value of percent of control at 10^−7 M was less than 40% or the value of IC50 was less than 50 nM.).
In the case of `Cc1nc(N[C@H]2CC[C@@H](NC(=O)c3ccc(F)cc3)CC2)nc(N(C)C)c1C` [compound 2846, N-(cis-4-{[4-(dimethylamino)-5,6-dimethylpyrimidin-2-yl]amino}cyclohexyl)-4-fluorobenzamide] it was 1 (Class 1: The value of percent of control at 10^−7 M was less than 40% or the value of IC50 was less than 50 nM.); in that of `Cc1nc(N[C@H]2CC[C@@H](NC(=O)c3ccc(Cl)cc3)CC2)nc(N(C)C)c1C` [compound 2847, 4-chloro-N-(cis-4-{[4-(dimethylamino)-5,6-dimethylpyrimidin-2-yl]amino}cyclohexyl)benzamide], 1 (Class 1: The value of percent of control at 10^−7 M was less than 40% or the value of IC50 was less than 50 nM.).
In the case of `COc1ccccc1C(=O)N[C@H]1CC[C@@H](Nc2nc(C)c(C)c(N(C)C)n2)CC1` [compound 2848, N-(cis-4-{[4-(dimethylamino)-5,6-dimethylpyrimidin-2-yl]amino}cyclohexyl)-2-methoxybenzamide] it was 2 (Class 2: The value of percent of control at 10^−7 M was from 40% to 60% or the value of IC′50 was from 50 nM to 200 nM.); in that of `Cc1nc(N[C@H]2CC[C@@H](NC(=O)c3ccc(Br)cc3)CC2)nc(N(C)C)c1C` [compound 2849, 4-bromo-N-(cis-4-{[4-(dimethylamino)-5,6-dimethylpyrimidin-2-yl]amino}cyclohexyl)benzamide], 1 (Class 1: The value of percent of control at 10^−7 M was less than 40% or the value of IC50 was less than 50 nM.).
Turning to `Cc1nc(N[C@H]2CC[C@@H](NC(=O)c3ccc(C(F)(F)F)cc3)CC2)nc(N(C)C)c1C` [compound 2850, N-(cis-4-{[4-(dimethylamino)-5,6-dimethylpyrimidin-2-yl]amino}cyclohexyl)-4-(trifluoromethyl)benzamide], the class was 1 (Class 1: The value of percent of control at 10^−7 M was less than 40% or the value of IC50 was less than 50 nM.).
In the case of `CCOc1ccc(C(=O)N[C@H]2CC[C@@H](Nc3nc(C)c(C)c(N(C)C)n3)CC2)cc1` [compound 2851] it was 3 (Class 3 The value of percent of control at 10^−7 M was more than 60% or the value of IC50 was more than 200 nM.).
